A word on the IC50: it is the concentration that gives 50% inhibition. A high value points to a need for much substance.

The assay concerns the target T1, Tyrosine-protein kinase receptor TYRO3 (Homo sapiens, UniProt Q06418).
T1 sequence (Q06418 whole entry): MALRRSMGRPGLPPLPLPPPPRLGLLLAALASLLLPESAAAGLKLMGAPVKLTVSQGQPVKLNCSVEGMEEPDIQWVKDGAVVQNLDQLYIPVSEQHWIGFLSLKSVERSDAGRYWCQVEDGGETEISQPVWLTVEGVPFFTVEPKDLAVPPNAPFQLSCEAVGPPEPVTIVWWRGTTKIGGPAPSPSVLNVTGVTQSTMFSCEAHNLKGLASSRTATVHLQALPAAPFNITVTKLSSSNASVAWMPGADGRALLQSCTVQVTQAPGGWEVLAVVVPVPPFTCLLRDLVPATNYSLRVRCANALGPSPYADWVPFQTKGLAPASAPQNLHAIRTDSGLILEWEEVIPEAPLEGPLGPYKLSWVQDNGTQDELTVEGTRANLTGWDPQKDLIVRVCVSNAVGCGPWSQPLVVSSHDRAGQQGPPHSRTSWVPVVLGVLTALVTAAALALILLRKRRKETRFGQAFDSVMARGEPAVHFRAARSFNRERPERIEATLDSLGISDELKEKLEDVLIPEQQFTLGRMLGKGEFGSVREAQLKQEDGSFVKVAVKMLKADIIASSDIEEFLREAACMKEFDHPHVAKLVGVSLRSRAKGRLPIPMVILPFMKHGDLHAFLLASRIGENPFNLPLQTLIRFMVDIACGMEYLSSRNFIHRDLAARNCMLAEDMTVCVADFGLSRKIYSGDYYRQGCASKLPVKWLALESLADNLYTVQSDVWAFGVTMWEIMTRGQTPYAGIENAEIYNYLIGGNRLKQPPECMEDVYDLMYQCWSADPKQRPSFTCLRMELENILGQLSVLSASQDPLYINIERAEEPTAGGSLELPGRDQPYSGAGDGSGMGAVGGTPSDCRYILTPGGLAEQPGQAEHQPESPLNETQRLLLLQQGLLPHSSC
Nature of the assay: Inhibition of SKY (unknown origin).

`CN1C(=O)CCc2cc(NC(=O)c3n[nH]c4ccccc34)ccc21` displayed an IC50 of 3.2 nM.

`O=C(O)c1cccc(C(=O)Nc2n[nH]c3ncc(-c4ccc(F)cc4)cc23)c1` displayed an IC50 of 1.2 nM.

The values are drawn from ChEMBL document CHEMBL5634205, “Pyrazolopyridine-based kinase inhibitors for anti-cancer targeted therapy” (RSC Med Chem, 2024).
